Reference: patent publication US20200037600A1, “MESOIONIC IMIDAZOPYRIDINES AS INSECTICIDES” (Bayer Aktiengesellschaft, priority 2017, published 2020)
Like-named read-outs stand apart in the source and are kept apart here. One block for each molecule: values may come before it.

Columns and labels:
Myzus persicae [1] = test: Myzus persicae spray test; type: in vivo; details: application rate 500 g/ha, Chinese cabbage leaf discs, after 5 days; for pest or weed control at 500 g/ha: Myzus persicae, foliar, 120 h, read-out: efficacy
Protocol: Myzus persicae—Spray Test
(§1) Solvent: 78 parts by weight of acetone • • 1.5 parts by weight of dimethylformamide
(§2) Emulsifier: alkylaryl polyglycol ether
(§3) To produce a suitable active compound formulation, 1 part by weight of active compound is dissolved with the specified parts by weight of solvent and made up to the desired concentration with water containing an emulsifier concentration of 1000 ppm. To produce further test concentrations, the formulation is diluted with emulsifier-containing water.
Discs of Chinese cabbage leaves (Brassica pekinensis) infested by all stages of the green peach aphid (Myzus persicae) are sprayed with an active compound formulation of the desired concentration.
(§4) After 5 days, the efficacy in % is determined. 100% means that all the aphids have been killed; 0% means that no aphids have been killed.

Lucilia cuprina = Lucilia cuprina test; type: in vivo; details: application rate 100 ppm; L1 larvae; after 2 days
Protocol: (§5) Solvent: dimethyl sulfoxide
(§6) To produce a suitable active compound formulation, 10 mg of active compound are mixed with 0.5 ml of dimethyl sulfoxide, and the concentrate is diluted with water to the desired concentration.
About 20 L1 larvae of the Australian sheep blowfly (Lucilia cuprina) are transferred into a test vessel containing minced horsemeat and the active compound formulation of the desired concentration.
After 2 days, the kill in % is determined. 100% means that all the larvae have been killed; 0% means that no larvae have been killed.

Myzus persicae [2] = test: Myzus persicae oral test; type: in vivo; details: after 5 days; for pest or weed control at 4 ppm / pest or weed control at 20 ppm: Myzus persicae, po, 120 h, read-out: efficacy
Protocol: Solvent: 100 parts by weight of acetone
To produce a suitable active compound formulation, 1 part by weight of active compound is dissolved with the stated parts by weight of solvent and made up to the desired concentration with water.
50 μl of the active compound formulation are transferred into microtitre plates and made up to a final volume of 200 μl with 150 μl of IPL41 insect medium (33%+15% sugar). Subsequently, the plates are sealed with parafilm, which a mixed population of green peach aphids (Myzus persicae) within a second microtitre plate is able to puncture and imbibe the solution.
as §4

Musca domestica = Musca domestica test; type: in vivo; details: application rate 100 ppm; adult houseflies; after 2 days
Protocol: as §5, §6
Vessels containing a sponge treated with sugar solution and the active compound formulation of the desired concentration are populated with 10 adult houseflies (Musca domestica).
After 2 days, the kill in % is determined. 100% means that all of the flies have been killed; 0% means that none of the flies have been killed.

Diabrotica balteata = Diabrotica balteata spray test; type: in vivo; details: application rate 160 μg/well, beetle larvae on germinated wheat grains, after 7 days; for pest or weed control at 160 µg/disc, 160 µg/well: Diabrotica balteata, 168 h, read-out: efficacy
Protocol: Diabrotica balteata—Spray Test
as §1, §2, §3
Pre-swollen wheat grains (Triticum aestivum) are incubated in a multiwell plate filled with agar and a little water for one day (5 seed grains per well). The germinated wheat grains are sprayed with an active compound preparation of the desired concentration. Subsequently, each cavity is infected with 10-20 beetle larvae of Diabrotica balteata.
After 7 days, the efficacy in % is determined. 100% means that all maize plants have grown as in the untreated, uninfected control; 0% means that no maize plant has grown.

[3] = log P by HPLC (EEC directive 79/831 Annex V.A8); type: physicochemical
Protocol: The log P values reported in the tables and preparation examples above were determined in accordance with EEC directive 79/831 Annex V.A8 by HPLC (High Performance Liquid Chromatography) using a reversed-phase column (C18). Temperature 43° C. The calibration is effected with unbranched alkan-2-ones (having 3 to 16 carbon atoms), for which the log P values are known.

Phaedon cochleariae = Phaedon cochleariae spray test; type: in vivo; details: foliar, 168 h, application rate 500 g/ha, larvae on Chinese cabbage leaf discs, after 7 days, read-out: efficacy
Protocol: Phaedon cochleariae—Spray Test
Solvent: 78.0 parts by weight of acetone • • 1.5 parts by weight of dimethylformamide
as §2, §3
Discs of Chinese cabbage leaves (Brassica pekinensis) are sprayed with an active compound formulation of the desired concentration and, after drying, populated with larvae of the mustard beetle (Phaedon cochleariae).
After 7 days, the efficacy in % is determined. 100% means that all the beetle larvae have been killed; 0% means that no beetle larvae have been killed.

[4] = HPLC, reversed-phase column (C18), 43° C, acidic (HCOOH), read-out: log P (HCOOH)

Structure (SMILES): CCNC(=O)c1c([O-])[n+]2ccccc2n1Cc1cnc(Cl)s1 [Example I-018]
- efficacy (Myzus persicae [1]): 100%
- efficacy (kill in %) (Lucilia cuprina): 100%
- efficacy (Myzus persicae [2]; application rate 4 ppm): 100%
- efficacy (Myzus persicae [2]; application rate 20 ppm): 100%
- efficacy (kill in %) (Musca domestica): 85%
- efficacy (Diabrotica balteata): 100%

- chromatographic logP [3, 4]: 4.73
Structure (SMILES): CC(C)(C)OC(=O)CN(Cc1cnc(Cl)s1)c1ncccc1C1CC1 [IV-2-003]

Structure (SMILES): O=C(O)CN(Cc1cnc(Cl)s1)c1ccccn1 [Example V-1-001, 2-[(2-Chlorothiazol-5-yl)methyl-(2-pyridyl)amino]acetic Acid]
- chromatographic logP [3]: 1.21

Structure (SMILES): CO/N=C/C(=O)c1c([O-])[n+]2ccccc2n1Cc1cnc(Cl)s1 [Example I-059, 1-[(2-chlorothiazol-5-yl)methyl]-2-[(2E)-2-methoxyiminoacetyl]imidazo[1,2-a]pyridin-4-ium-3-olate]
- pest or weed control at 500 g/ha (Myzus persicae [1]): 70%
- pest or weed control at 4 ppm (Myzus persicae [2]; application rate 4 ppm): 100%
- chromatographic logP [3]: 1.45
- pest or weed control at 160 µg/disc, 160 µg/well (Diabrotica balteata): 100%

- chromatographic logP [3, 4]: 2.99
Structure (SMILES): O=C(c1c([O-])[n+]2cccc(-c3ccccc3)c2n1Cc1cnc(Cl)s1)C(F)(F)F [Example I-109, 1-[(2-chlorothiazol-5-yl)methyl]-8-phenyl-2-(2,2,2-trifluoroacetyl)imidazo[1,2-a]pyridin-4-ium-3-olate]

Structure (SMILES): Cc1ccc[n+]2c([O-])c(C(=O)C(F)(F)C(F)(F)F)n(Cc3cnc(Cl)s3)c12 [Example I-062]
- pest or weed control at 500 g/ha (Myzus persicae [1]): 90%
- pest or weed control at 500 g/ha (Phaedon cochleariae): 100%
- pest or weed control at 4 ppm (Myzus persicae [2]; application rate 4 ppm): 100%

Structure (SMILES): CC(=O)c1c([O-])[n+]2cccc(C)c2n1Cc1cnc(Cl)s1 [Example I-044]
- pest or weed control at 500 g/ha (Myzus persicae [1]): 100%
- pest or weed control at 500 g/ha (Phaedon cochleariae): 83%
- pest or weed control at 4 ppm (Myzus persicae [2]; application rate 4 ppm): 100%
- pest or weed control at 160 µg/disc, 160 µg/well (Diabrotica balteata): 100%

Structure (SMILES): O=C(CCl)c1c([O-])[n+]2ccccc2n1Cc1cnc(Cl)s1 [Example I-005, 2-(2-Chloroacetyl)-1-[(2-chlorothiazol-5-yl)methyl]imidazo[1,2-a]pyridin-4-ium-3-olate]
- pest or weed control at 4 ppm (Myzus persicae [2]; application rate 4 ppm): 100%
- pest or weed control at 20 ppm (Myzus persicae [2]; application rate 20 ppm): 100%
- chromatographic logP [3]: 1.58
- pest or weed control at 160 µg/disc, 160 µg/well (Diabrotica balteata): 80%

- chromatographic logP [3, 4]: 1.94
Structure (SMILES): O=C(OCC1CC1)C(=O)c1c([O-])[n+]2ccccc2n1Cc1cnc(Cl)s1 [Example I-034, 1-[(2-chlorothiazol-5-yl)methyl]-2-[2-(cyclopropylmethoxy)-2-oxoacetyl]imidazo[1,2-a]pyridin-4-ium-3-olate]
- pest or weed control at 500 g/ha (Myzus persicae [1]): 90%
- pest or weed control at 4 ppm (Myzus persicae [2]; application rate 4 ppm): 100%
- efficacy (kill in %) (Musca domestica): 100%

Structure (SMILES): O=C(c1c([O-])[n+]2cccc(I)c2n1Cc1cnc(Cl)s1)C(F)(F)F [Example I-112, 1-[(2-chlorothiazol-5-yl)methyl]-8-iodo-2-(2,2,2-trifluoroacetyl)imidazo[1,2-a]pyridin-4-ium-3-olate]
- chromatographic logP [3]: 2.37

Structure (SMILES): CC(C)(C)OC(=O)CN(Cc1cnc(Cl)s1)c1ncccc1I [IV-2-002]
- chromatographic logP [3]: 4.62

Structure (SMILES): CC(C)NC(=O)c1c([O-])[n+]2ccccc2n1Cc1cnc(Cl)s1 [Example I-025, 1-[(2-Chlorothiazol-5-yl)methyl]-2-(isopropylcarbamoyl)imidazo[1,2-a]pyridin-4-ium-3-olate]
- pest or weed control at 4 ppm (Myzus persicae [2]; application rate 4 ppm): 100%
- efficacy (kill in %) (Musca domestica): 100%
- chromatographic logP [3]: 1.66

Structure (SMILES): COC(=O)C(=O)c1c([O-])[n+]2cccc(C)c2n1Cc1cnc(Cl)s1 [Example I-045]
- pest or weed control at 500 g/ha (Myzus persicae [1]): 100%
- pest or weed control at 500 g/ha (Phaedon cochleariae): 100%
- efficacy (kill in %) (Lucilia cuprina): 90%
- pest or weed control at 4 ppm (Myzus persicae [2]; application rate 4 ppm): 100%
- pest or weed control at 160 µg/disc, 160 µg/well (Diabrotica balteata): 100%

- chromatographic logP [3, 4]: 2.48
Structure (SMILES): O=C(c1c([O-])[n+]2cccc(C3CC3)c2n1Cc1cnc(Cl)s1)C(F)(F)F [Example I-078, 1-[(2-chlorothiazol-5-yl)methyl]-8-cyclopropyl-2-(2,2,2-trifluoroacetyl)imidazo[1,2-a]pyridin-4-ium-3-olate]

Structure (SMILES): Cc1ccc[n+]2c(O)cn(Cc3cnc(Cl)s3)c12 [VII-1-001, 1-[(2-Chlorothiazol-5-yl)methyl]-8-methylimidazo[1,2-a]pyridin-4-ium-3-ol; 2,2,2-trifluoroacetate]
- chromatographic logP [3, 4]: 0.75

Structure (SMILES): Cc1cccnc1N(CC(=O)OC(C)(C)C)Cc1cnc(Cl)s1 [tert-Butyl 2-[(2-chlorothiazol-5-yl)methyl-(3-methyl-2-pyridyl)amino]acetate]
- chromatographic logP [3]: 4.13

Structure (SMILES): Oc1cn(Cc2cnc(Cl)s2)c2c(C3CC3)ccc[n+]12 [VII-1-003, 1-[(2-chlorothiazol-5-yl)methyl]-8-cyclopropylimidazo[1,2-a]pyridin-4-ium-3-ol 2,2,2-trifluoroacetate]
- chromatographic logP [3, 4]: 1.27

Structure (SMILES): O=C(c1cccc(C(F)(F)F)c1)c1c([O-])[n+]2ccccc2n1Cc1cnc(Cl)s1 [Example I-023]
- efficacy (Myzus persicae [1]): 90%
- efficacy (kill in %) (Lucilia cuprina): 95%
- efficacy (Myzus persicae [2]; application rate 4 ppm): 100%
- efficacy (Diabrotica balteata): 100%

Structure (SMILES): CCOC(=O)C(=O)c1c([O-])[n+]2ccccc2n1Cc1cnc(Cl)s1 [Example I-029, 1-[(2-chlorothiazol-5-yl)methyl]-2-(2-ethoxy-2-oxoacetyl)imidazo[1,2-a]pyridin-4-ium-3-olate]
- pest or weed control at 4 ppm (Myzus persicae [2]; application rate 4 ppm): 100%
- chromatographic logP [3]: 1.55

Structure (SMILES): Oc1cn(Cc2cnc(Cl)s2)c2c(I)ccc[n+]12 [VII-1-002, 1-[(2-chlorothiazol-5-yl)methyl]-8-iodoimidazo[1,2-a]pyridin-4-ium-3-ol 2,2,2-trifluoroacetate]
- chromatographic logP [3, 4]: 1.22

Structure (SMILES): COCC(=O)c1c([O-])[n+]2ccccc2n1Cc1cnc(Cl)s1 [Example I-010, 1-[(2-Chlorothiazol-5-yl)methyl]-2-(2-methoxyacetyl)imidazo[1,2-a]pyridin-4-ium-3-olate]
- pest or weed control at 500 g/ha (Myzus persicae [1]): 100%
- pest or weed control at 4 ppm (Myzus persicae [2]; application rate 4 ppm): 100%
- pest or weed control at 20 ppm (Myzus persicae [2]; application rate 20 ppm): 100%
- chromatographic logP [3]: 1.13
- pest or weed control at 160 µg/disc, 160 µg/well (Diabrotica balteata): 100%

Structure (SMILES): O=C(c1cccs1)c1c([O-])[n+]2ccccc2n1Cc1cnc(Cl)s1 [Example I-026]
- efficacy (kill in %) (Lucilia cuprina): 100%
- efficacy (Myzus persicae [2]; application rate 4 ppm): 100%
- efficacy (Diabrotica balteata): 100%

Structure (SMILES): O=C(COCc1ccnc(Cl)c1)c1c([O-])[n+]2ccccc2n1Cc1ccc(Cl)nc1 [Example I-084, 2-[2-[(2-chloro-4-pyridyl)methoxy]acetyl]-1-[(6-chloro-3-pyridyl)methyl]imidazo[1,2-a]pyridin-4-ium-3-olate]
- chromatographic logP [3]: 1.73

Structure (SMILES): CC(C)(C)OC(=O)CN(Cc1cnc(Cl)s1)c1ccccn1 [tert-Butyl 2-[(2-chlorothiazol-5-yl)methyl-(2-pyridyl)amino]acetate]
- chromatographic logP [3]: 3.59

- chromatographic logP [3, 4]: 1.83
Structure (SMILES): O=C(Cn1cc(Cl)cn1)c1c([O-])[n+]2ccccc2n1Cc1cnc(Cl)s1 [Example I-004, 2-[2-(4-Chloropyrazol-1-yl)acetyl]-1-[(2-chlorothiazol-5-yl)methyl]imidazo[1,2-a]pyridin-4-ium-3-olate]
- pest or weed control at 20 ppm (Myzus persicae [2]; application rate 20 ppm): 90%

Structure (SMILES): Cc1ccc[n+]2c([O-])c(C(=O)C(=O)OC3CCC3)n(Cc3cnc(Cl)s3)c12 [Example I-065]
- pest or weed control at 500 g/ha (Myzus persicae [1]): 90%
- pest or weed control at 500 g/ha (Phaedon cochleariae): 100%
- pest or weed control at 4 ppm (Myzus persicae [2]; application rate 4 ppm): 100%

Structure (SMILES): O=C(OC1CCC1)C(=O)c1c([O-])[n+]2ccccc2n1Cc1cnc(Cl)s1 [Example I-035]
- efficacy (Myzus persicae [1]): 100%
- efficacy (Myzus persicae [2]; application rate 4 ppm): 100%
- efficacy (kill in %) (Musca domestica): 100%
